Test results as given in patent publication EP0338042B1, “COMPOSITION AND METHOD FOR TREATING HEPATITIS VIRUS INFECTIONS USING 1-(2'-DEOXY-2'-FLUORO-BETA-D-ARABINOFURANOSYL)-5-ETHYLURACIL” (priority 1987, dated 1989).
Like-named read-outs stand apart in the source and are kept apart here. Marks after values point to notes of the source that are not given here.

Tests used:
[1] = system: woodchuck hepatitis virus (WHV); experiment: Inhibition of WHV replication in chronically infected woodchucks (DNA polymerase activity); assay type: in vivo, woodchucks (Marmota monax); details: for WHV replication by day 60: all 5 animals
Method: All woodchucks bearing chronic active hepatitis virus (Hantz, supra) were administered FMAU twice daily by interperitoneal injections of FMAU in the following dosages:
Studies were then undertaken to evaluate FMAU and FEAU in this animal model using woodchucks naturally chronically-infected with woodchuck hepatitis virus (24). It was assumed that these nucleosides would be anabolized to their nucleoside triphosphates within the animal. WHV replication was measured periodically by the endogenous DNA polymerase activity and by the detection of WHV DNA by the dot-blot hybridization assay. Three different dosages of FMAU and FEAU were investigated. FMAU at 2 mg/kg/day x 5, (given intraperitoneally TABLE VIII
In accordance with the procedures of Example 2, the FEAU inhibition of WHV replication was further studied at different doses administered orally to woodchucks through stomach tubes. Two groups of woodchucks with different initial WHV replication values were examined.
Seven woodchucks with high WHV replication were tested. High replication was defined as over 1000 counts per minute of DNA polymerase activity, and the mean replication was 1600.
Seven woodchucks with low WHV replication were tested. Low replication was defined as lower than 1000 counts per minute of DNA polymerase activity, and the mean replication was 600-800.

[2] = system: L-1210 CELLS; experiment: Inhibition of thymidine incorporation into DNA; assay type: cell-based, rodent; details: Mus musculus, L1210, read-out: ED50 FOR […] INC[…] DNA, L-1210 CELLS; read-out: ED50 FOR INHIBITING THYMIDINE INCORPORATION INTO DNA, L-1210 CELLS
[3] = system: HSV-2(G); experiment: Plaque reduction assay in Vero cells; assay type: cell-based; details: monkey
Source text: (§1) With FMAU as a lead compound, the syntheses of other 5-alkyl substituted 2′-fluoro-ara-uracils were undertaken (8, 9), including 1-(2′-deoxy-2′-fluoro-beta-D-arabinofuranosyl)-5-ethyluracil [FEAU].

[4] = system: HSV-1(F); experiment: Plaque reduction assay in Vero cells; assay type: cell-based; details: monkey
Source text: as §1

[5] = system: P-815 CELLS; experiment: Inhibition of thymidine incorporation into DNA; assay type: cell-based, rodent; details: Mus musculus, P815, read-out: ED50 FOR […] INC[…] DNA, P-815 CELLS; read-out: ED50 FOR INHIBITING THYMIDINE INCORPORATION INTO DNA, P-815 CELLS
[6] = cited from earlier work
[7] = system: L-1210; experiment: Incorporation of 2-14C-labeled nucleoside into DNA of cells; assay type: cell-based, rodent; details: FEAU also not detectable at 100 μM
Source text: (§2) There was no detectable incorporation of FEAU radioactivity into the DNA of either L-1210 or Vero cell lines, but substantial amounts of FMAU radioactivity were incorporated into the DNA of both cell lines. When HSV-1 infected Vero cells were exposed to ¹⁴C-labeled FEAU and FMAU, both nucleosides incorporated into the DNA of these virus-infected cells.

[8] = system: HSV-2(G); details: plaque reduction in Vero cells, cited from earlier work
[9] = system: HL-60 CELLS; experiment: Inhibition of cell growth; assay type: cell-based; details: Homo sapiens, HL-60, read-out: ED50 FOR INHIBITING CELL GROWTH IN HL-60 CELLS
[10] = system: Vero cells; experiment: Inhibition of cell growth; assay type: cell-based, African green monkey; details: Chlorocebus sabaeus, read-out: ED50 FOR INHIBITING CELL GROWTH IN VERO CELLS
[11] = system: HSV-2 (STRAIN G); details: cited from earlier work; for MDD: calculated on day 21; for %WT GAIN ON DAY 7 / %WT GAIN ON DAY 14 / %WT GAIN ON DAY 21 / %WT GAIN ON DAY 30: compared to day 1
[12] = Toxicity in dogs
[13] = system: HSV-1 INFECTED VERO CELLS; experiment: Incorporation of 2-14C-labeled nucleoside into DNA of cells; assay type: cell-based, African green monkey; details: [2-14C] labeled nucleoside
Source text: as §2

[14] = system: VERO; experiment: as above; assay type: cell-based, African green monkey; details: FEAU also not detectable at 100 μM
Source text: as §2

[15] = system: HSV-1(F); details: plaque reduction in Vero cells, cited from earlier work
[16] = system: RAT BONE MARROW CELLS; experiment: Inhibition of thymidine incorporation into DNA; assay type: cell-based; details: Bone marrow cell, read-out: ED50 FOR […] INC[…] DNA, RAT BONE MARROW CELLS, read-out: ED50 FOR INHIBITING THYMIDINE INCORPORATION INTO DNA, RAT BONE MARROW CELLS
[17] = system: Vero cells; details: cytotoxic effect measured in rapidly dividing cells; read-out: ID₅₀; cited from earlier work
[18] = 0.2 mg/kg/day, FMAU x 5, FEAU x 10
[19] = FEAU 10 MG/KG/DAY, single surviving animal only

## CCc1cn([C@@H]2O[C@H](CO)[C@@H](O)[C@@H]2F)c(=O)[nH]c1=O [FEAU, 1-(2'-deoxy-2'-fluoro-beta-D-arabino-furanosyl)-5-ethyl-uracil]
[1]; 0.04 mg/kg/day x 10
  anti-WHV effect: somewhat diminished anti-WHV effect
[1]; [18]
  suppression of viral replication: equally effective
  toxicity: nontoxic
[1]; 0.2 or 2 mg doses, slow return to pretreatment levels
  inhibitory activity after cessation of drug administration: remained significant over a six-week period
[1]; high replication woodchucks (>1000 cpm), oral 0.2 mg/kg/day, four of five still above normal level (50 cpm)
  WHV replication by the twenty-third day: lowered replication values
[1]; high replication woodchucks, oral 0.2 mg/kg/day, raised to 1 mg/kg/day on day 24 in four of five
  WHV replication by day 60: completely inhibited
[1]; i.p. 2 mg/kg/day x 10
  WHV replication: almost immediate suppression
[1]; in vivo
  weight loss: about 10%
[1]; in vivo, ip, 2 mg/kg/day
  toxicity: did not exhibit any toxic effects
[1]; in vivo, po, 0.2 mg/kg/day
  toxicity: without any observed toxicity
[1]; low replication woodchucks (<1000 cpm), oral 0.04 mg/kg/day, two of five still above normal level
  WHV replication by the twenty-third day: lowered replication values
[1]; low replication woodchucks, oral 0.04 mg/kg/day, raised to 0.2 mg/kg/day on day 24 in two of five
  WHV replication by day 60: completely inhibited
[1]; oral administration, 0.2 mg/kg/day x 10, one woodchuck, preliminary
  WHV replication: significant suppression
[2]
  EC50: 630 µM
[3]
  THER. INDEX ID₅₀/ED₉₀ HSV-2: 220
[4]
  THER. INDEX ID₅₀/ED₉₀ HSV-1: 769
[5]
  EC50: 700 µM
[6]; in vivo experiments with mice
  toxicity: relatively nontoxic
[6]; normal (uninfected) mice, 800 mg/kg/day given twice daily for 4 days
  toxicity: non-toxic
[7]
  INCORPORATION INTO DNA AT 10μM, L-1210: NOT DETECTABLE*
[8]; read-out: HSV-2(G) ED₅₀
  EC50: 240 nM
[8]; read-out: HSV-2(G) ED₉₀
  EC90: 910 nM
[9]
  EC50: 2.06 mM
[10]
  EC50: > 200 µM
[11]; FEAU 10 MG/KG/DAY, twice a day for 4 days from 5 hr after inoculation
  MDD: 9.4
[11]; FEAU 10 MG/KG/DAY, twice a day for 4 days
  % SURVIVORS: 8%
[11]; FEAU 10 MG/KG/DAY
  %WT GAIN ON DAY 7: -7%
[11]; [19]
  %WT GAIN ON DAY 14: -13^+ %
  %WT GAIN ON DAY 21: 31^+ %
  %WT GAIN ON DAY 30: 36^+ %
[11]; FEAU 50 MG/KG/DAY, twice a day for 4 days from 5 hr after inoculation
  MDD: 11.8
[11]; FEAU 50 MG/KG/DAY, twice a day for 4 days
  % SURVIVORS: 25%
[11]; FEAU 50 MG/KG/DAY
  %WT GAIN ON DAY 7: 3%
  %WT GAIN ON DAY 14: -10%
  %WT GAIN ON DAY 21: 16%
  %WT GAIN ON DAY 30: 25%
[11]; FEAU 100 MG/KG/DAY, twice a day for 4 days from 5 hr after inoculation
  MDD: 11.0
[11]; FEAU 100 MG/KG/DAY, twice a day for 4 days
  % SURVIVORS: 72%
[11]; FEAU 100 MG/KG/DAY
  %WT GAIN ON DAY 7: 2%
  %WT GAIN ON DAY 14: 7%
  %WT GAIN ON DAY 21: 13%
  %WT GAIN ON DAY 30: 13%
[11]; FEAU 200 MG/KG/DAY, twice a day for 4 days, parentheses: death of a single animal
  MDD: (14)^#
[11]; FEAU 200 MG/KG/DAY, twice a day for 4 days
  % SURVIVORS: 93%
[11]; FEAU 200 MG/KG/DAY
  %WT GAIN ON DAY 7: 0%
  %WT GAIN ON DAY 14: 1%
  %WT GAIN ON DAY 21: 9%
  %WT GAIN ON DAY 30: 13%
[11]; HSV-2 infected mice, doses of 100-200 mg/kg/day
  toxicity: no toxicity was observed
[12]; 50 mg/kg/day x 10, preliminary studies
  toxicity: moderate toxicity
[12]; FMAU i.v. x 5, FEAU x 10 (preliminary)
  lethal dose: 100 mg/kg/day
[13]
  INCORPORATION INTO DNA AT 10μM, HSV-1 INFECTED VERO CELLS: 0.48 p MOLE/10^6 CELLS/HR
[14]
  INCORPORATION INTO DNA AT 10μM, VERO: NOT DETECTABLE*
[15]; read-out: HSV-1(F) ED₅₀
  EC50: 24 nM
[15]; read-out: HSV-1(F) ED₉₀
  EC90: 260 nM
[16]
  EC50: 3.7 mM
[17]
  CC50: 200 µM
